Source: patent publication US20090068290A1, “BIFEPRUNOX DOSES FOR TREATING SCHIZOPHRENIA” (priority 2006, published 2009)

Columns and labels:
[1] = Pooled metabolic analysis, 6-week studies: glucose
Source text: (§1) OBJECTIVE: To examine the metabolic effects of bifeprunox in patients with acute and stable schizophrenia.
(§2) METHODS: Metabolic data was compiled from one 6-month and four 6-week studies (i.e., a treatment period) of bifeprunox in patients with stable and acute schizophrenia, respectively. In the 6-month study, patients received bifeprunox (n=331) or placebo (PBO) (n=166). […] Metabolic evaluations included body weight, body mass index (BMI), plasma glucose and lipid profiles. Fasting glucose and lipid values were assessed in one 6-week study and in the 6-month study. Triglyceride:HDL ratio (TG:HDL) was calculated as a marker of insulin resistance. No statistical analyses were performed; only descriptive statistics are presented.

[2] = Pooled metabolic analysis, 6-month study: glucose
Source text: as §1, §2

[3] = test system: patients with chronic schizophrenia; test: BPRS total and psychosis cluster scores, Clinical Study Four; assay type: in vivo, human; conditions: FAS, LOCF, ANCOVA
Description: METHODOLOGY: This study was a multinational, multicenter, randomized, double-blind, parallel-group, placebo-controlled, fixed-dose study. The study consisted of a 3- to 6-day antipsychotic-free run-in period, after which patients were randomised to 6 months of double-blind treatment with fixed doses of bifeprunox (20 mg/day (BX20) or 30 mg/day (BX30)) or placebo (PBO). Patients allocated to the BX groups were up-titrated from 0.25 mg/day over 7 days (BX20) or 8 days (BX30), and then continued on these doses for the remainder of the study. […] At predetermined time points, blood samples were obtained for drug concentration analysis of BX and its major metabolites (3′- and 4′-sulfate conjugates of BX), and pharmaco-economic assessments were performed.

In the case of `O=c1[nH]c2cccc(N3CCN(Cc4cccc(-c5ccccc5)c4)CC3)c2o1` [Bifeprunox, 7-[4-([1,1′-biphenyl]-3-ylmethyl)-1-piperazinyl]-2(3H)-benzoxazolone], the “change in mean fasting glucose at endpoint” value [1] was -1.44 mg/dL, the “decrease in mean fasting glucose at endpoint” value [1] was 1.6% and the “change in mean fasting glucose at endpoint” value ([2]; 6-month study) was “+4.32 mg/dL”. The “change in non-fasting glucose at endpoint” value ([2]; bifeprunox total group) was “+1.16 mg/dL”, the “BPRS psychosis cluster, Adjusted Mean Change from Baseline (LS mean)” value ([3]; Month 6, listed as BX20) was −0.1 and the “BPRS total, Adjusted Mean Change from Baseline (LS mean)” value (“BPRS total, Adjusted Mean Change” for short) ([3]; Month 6, listed as BX20) was −0.1. The “BPRS psychosis cluster, Adjusted Mean Change from Baseline (LS mean)” value ([3]; Month 6, listed as BX30) was −0.2, the “BPRS total, Adjusted Mean Change” value ([3]; Month 6, listed as BX30) was 0.5 and the “BPRS psychosis cluster, Adjusted Mean Change from Baseline (LS mean)” value ([3]; Week 6, listed as BX20) was −0.8. The “BPRS total, Adjusted Mean Change” value ([3]; Week 6, listed as BX20) was −2.1, the “BPRS psychosis cluster, Adjusted Mean Change from Baseline (LS mean)” value ([3]; Week 6, listed as BX30) was −0.7 and the “BPRS total, Adjusted Mean Change” value ([3]; Week 6, listed as BX30) was −1.3.
